In paper PMC7997411, “Discovery and Optimization of Selective Inhibitors of Meprin α (Part II)” (Pharmaceuticals, 2021):
Values joined by “and” are separate entries in the source; they are usually repeats but may differ in a detail not shown here. Equal values may be shown once. Read-outs that look alike come from different tables or passages of the source.

Tests used:
Type in all cases: biochemical
ADAM17 = target: T1, ADAM17 (Homo sapiens, UniProt P78536); experiment: ADAM17 assay
T1 construct: purchased R&D Systems 930-ADB
T1 sequence (P78536 215-824): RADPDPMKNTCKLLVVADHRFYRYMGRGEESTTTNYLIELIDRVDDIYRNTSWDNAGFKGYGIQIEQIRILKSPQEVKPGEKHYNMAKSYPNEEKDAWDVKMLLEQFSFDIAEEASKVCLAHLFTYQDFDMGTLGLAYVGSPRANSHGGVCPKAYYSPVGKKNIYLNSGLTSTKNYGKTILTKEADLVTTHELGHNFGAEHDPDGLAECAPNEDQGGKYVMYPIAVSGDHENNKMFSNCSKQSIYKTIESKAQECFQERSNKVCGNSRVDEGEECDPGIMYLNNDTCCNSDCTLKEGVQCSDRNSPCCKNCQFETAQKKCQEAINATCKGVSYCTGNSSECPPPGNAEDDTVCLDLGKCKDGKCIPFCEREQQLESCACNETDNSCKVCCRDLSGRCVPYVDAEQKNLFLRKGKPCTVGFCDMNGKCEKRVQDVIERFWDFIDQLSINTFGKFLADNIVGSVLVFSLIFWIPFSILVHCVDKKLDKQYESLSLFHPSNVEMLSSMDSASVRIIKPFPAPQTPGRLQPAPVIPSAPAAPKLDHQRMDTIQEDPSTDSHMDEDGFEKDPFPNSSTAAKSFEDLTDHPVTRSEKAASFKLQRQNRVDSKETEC
Method: MMP-1, MMP-2, MMP-8, MMP-9, MMP-10, MMP-13, MMP-14, ADAM10, ADAM17 and Mca-KPLGL-Dpa-AR-NH2 fluorogenic peptide substrate were purchased from R&D Systems (cat # 901-MP, 902-MP, 908-MP, 911-MP, 910-MP, 511-MM, 918-MP, 936-AD, 930-ADB, and ES010, respectively). All common chemicals were purchased from Sigma. NFF449 was purchased from Tocris (cat# 1391) and actinonin was from Sigma-Aldrich, St. Louis, MO, USA (cat# 01809).
Both assays followed the same general protocol. 2.5 µL of 2× enzyme solution (20 nM) in assay buffer (10 mM HEPES, 0.001% Brij-35, pH 7.5) were added to solid bottom black 384 plates (Greiner, cat# 789075). Next, test compounds and pharmacological controls were added to corresponding wells using a 384-pin tool device (V&P Scientific, San Diego). After 30 min incubation at RT, the reactions were started by addition of 2.5 µL of 2× solutions of substrate (R&D Systems cat#: ES010, Mca-KPLGL-Dpa-AR-NH2, 20 µM). Reactions were incubated at RT for 2 h, after which the fluorescence was measured using a Perkin Elmer Viewlux multimode microplate imager (λexcitation = 324 nm, λemission = 393 nm). All compounds were tested in 10-point, 1:3 serial dilutions dose-response format starting with highest concentration of 100 µM. IC50 values were determined using non-linear regression analysis using the GraphPad Prism 8.0 suite of programs.

human meprin β = target: T2, human meprin β (Homo sapiens, UniProt Q16820); experiment: Meprin β assay in a 384-well plate (fluorogenic substrate Mca-EDEDED-K(Dnp)); settings: for IC50: triplicate, ± SD
T2 construct: His-tag; made in house; host or cells: BTI-TN-5B1-4 insect cells (baculovirus, amplified in Sf9)
T2 sequence (Q16820 62-701): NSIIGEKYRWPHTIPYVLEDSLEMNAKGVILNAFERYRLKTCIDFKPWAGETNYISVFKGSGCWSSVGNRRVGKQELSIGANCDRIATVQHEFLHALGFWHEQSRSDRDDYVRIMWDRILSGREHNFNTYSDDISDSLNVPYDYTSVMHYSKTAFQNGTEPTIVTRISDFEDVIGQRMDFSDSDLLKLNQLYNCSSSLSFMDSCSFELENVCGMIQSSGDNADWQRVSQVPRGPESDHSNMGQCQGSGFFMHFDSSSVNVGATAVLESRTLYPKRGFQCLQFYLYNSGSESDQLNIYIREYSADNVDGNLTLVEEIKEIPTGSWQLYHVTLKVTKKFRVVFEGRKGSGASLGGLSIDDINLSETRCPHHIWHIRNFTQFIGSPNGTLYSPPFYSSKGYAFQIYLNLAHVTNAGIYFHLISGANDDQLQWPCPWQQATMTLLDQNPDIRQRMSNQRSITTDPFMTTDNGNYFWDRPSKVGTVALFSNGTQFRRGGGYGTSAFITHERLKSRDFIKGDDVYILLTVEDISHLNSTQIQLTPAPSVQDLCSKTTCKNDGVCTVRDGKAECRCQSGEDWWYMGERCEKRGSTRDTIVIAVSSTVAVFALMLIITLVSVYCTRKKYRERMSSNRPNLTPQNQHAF
Method: (§1) Recombinant human meprin α and meprin β were expressed using the Bac-to-Bac expression system (Gibco Life Technologies, Paisley, UK) as described before. Media and supplements were obtained from Gibco Life Technologies. Recombinant Baculoviruses were amplified in adherently growing Spodoptera frugiperda (Sf)9 insect cells at 27 °C in Grace’s insect medium supplemented with 10% fetal bovine serum, 50 units/mL penicillin, and 50 μg/mL streptomycin. Protein expression was performed in 500 mL suspension cultures of BTI-TN-5B1-4 insect cells growing in Express Five SFM supplemented with 4 mM glutamine, 50 units/mL penicillin, and 50 μg/mL streptomycin in Fernbach-flasks using a Multitron orbital shaker (INFORS AG, Bottmingen, Switzerland). Cells were infected at a density of 2 × 10^6 cells/mL with an amplified viral stock at a MOI of ~10. […] Meprins were activated by trypsin, which was removed afterwards by affinity chromatography using a column containing immobilized chicken ovomucoid, a trypsin inhibitor.
(§2) Both assays followed the same general protocol. […] After 30 min incubation at RT, the reactions were started by addition of 5 µL of 2× solutions of substrates (20 µM, meprin α Mca-YVADAPK-K(Dnp), and for meprin β Mca-EDEDED-K(Dnp)).

meprin α = target: T3, meprin α (Homo sapiens, UniProt Q16819); experiment: Meprin α assay in a 384-well plate (fluorogenic substrate Mca-YVADAPK-K(Dnp))
T3 construct: Strep-tag; made in house; host or cells: BTI-TN-5B1-4 insect cells (baculovirus, amplified in Sf9)
T3 sequence (Q16819 66-746): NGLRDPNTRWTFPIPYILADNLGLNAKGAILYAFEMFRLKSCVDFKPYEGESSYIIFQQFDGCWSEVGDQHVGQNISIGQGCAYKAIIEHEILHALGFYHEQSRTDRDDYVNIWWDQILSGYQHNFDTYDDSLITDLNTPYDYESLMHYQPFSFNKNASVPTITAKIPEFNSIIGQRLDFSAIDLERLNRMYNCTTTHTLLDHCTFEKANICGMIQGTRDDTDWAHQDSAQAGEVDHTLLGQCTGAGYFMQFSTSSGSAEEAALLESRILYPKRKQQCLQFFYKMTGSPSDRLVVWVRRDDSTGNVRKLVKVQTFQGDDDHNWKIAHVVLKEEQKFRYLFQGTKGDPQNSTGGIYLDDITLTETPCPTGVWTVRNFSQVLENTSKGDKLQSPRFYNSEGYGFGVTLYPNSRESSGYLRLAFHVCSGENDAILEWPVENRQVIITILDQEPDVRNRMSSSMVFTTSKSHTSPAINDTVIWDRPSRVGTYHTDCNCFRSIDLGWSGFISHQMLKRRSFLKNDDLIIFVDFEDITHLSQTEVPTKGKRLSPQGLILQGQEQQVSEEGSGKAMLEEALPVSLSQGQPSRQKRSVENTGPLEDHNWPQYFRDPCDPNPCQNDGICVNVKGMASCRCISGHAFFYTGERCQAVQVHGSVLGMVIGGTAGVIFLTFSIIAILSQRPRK
Method: as §1, §2

[1] = scale-up batch, higher doses tested, Figure 4A

| SMILES | IC50 (ADAM17) | IC50 (human meprin β) | IC50 (meprin α; triplicate, ± SD) | extent of meprin β inhibition (in words) (human meprin β; [1]) | IC50 (meprin α) | fold more potent than the HTS hit SR19855 in binding meprin α (meprin α) | meprin α/β fold selectivity (ratio of IC50 values) (meprin α; meprin α over meprin β) | extent of meprin α inhibition (in words) (meprin α; [1]) |
| --- | --- | --- | --- | --- | --- | --- | --- | --- |
| CCCCC[C@H](CC(=O)NO)C(=O)N[C@H](C(=O)N1CCC[C@H]1CO)C(C)C [Actinonin, actinonin, reference compound] | 200 ± 20 nM | 4800 ± 500 nM | 4 nM | – | – | – | – | – |
| COc1cc(OC)nc(SCc2nnc(SCC(=O)NO)n2-c2ccc(N(C)C)cc2)n1 [SR24717] | > 100000 nM | ≥ 70000 nM and 70000 nM | 660 ± 30 nM | only partial meprin β inhibition | 490 to 670 nM | ~ 2 fold | > 100 fold and 106 fold and ~ 106 fold | full meprin α inhibition |
